For ten compounds, TGI results are on record in PubChem BioAssay (NCI).

Test systems include 786-0 renal; DU-145 prostate; HOP-92 NSCLC; M14 melanoma; MDA-MB-435; MOLT-4 leukemia; NCI/ADR-RES ovarian; SK-MEL-2 melanoma; SK-OV-3 ovarian; SN12C renal.
What all share (assay): NCI-60 cell line screen, 48 h

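Dose response: 5 concentrations. Exposure: 48 h. Format: 96-well plates. Endpoint: linear interpolation; highest concentration if not reached. TGI: concentration producing complete growth inhibition.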

For `COc1cc(NS(C)(=O)=O)ccc1NCc1cnc2ccc3[nH]cccc3c12`, the TGI was 54 µM in the experiment with 786-0 renal; more than 70.3 µM in the experiment with DU-145 prostate; 93.9 µM in the experiment on HOP-92 NSCLC; 31.4 µM in the experiment on M14 melanoma; 43.8 µM with MDA-MB-435; 22.1 µM in the experiment with MOLT-4 leukemia. Besides, the TGI with NCI/ADR-RES ovarian was found to be 62.1 µM; with SK-MEL-2 melanoma, 39.4 µM; in the experiment on SK-OV-3 ovarian, 48 µM; with SN12C renal it was 67.4 µM.
Consider `Nc1ncnc2c1ncn2C1OC(CO)C(O)C1NS(=O)(=O)c1ccccc1` (stereo not given), for which the TGI with 786-0 renal, with DU-145 prostate, with HOP-92 NSCLC, in the experiment with M14 melanoma, with MDA-MB-435 and in the experiment with MOLT-4 leukemia was more than 100 µM each time. The TGI in the experiment on NCI/ADR-RES ovarian, in the experiment with SK-MEL-2 melanoma, in the experiment with SK-OV-3 ovarian and with SN12C renal was more than 100 µM each time.
For `CNC(=O)c1cc2nc3ccccc3c(=O)n2c2ccccc12`, the TGI in the experiment with 786-0 renal, in the experiment with DU-145 prostate, with HOP-92 NSCLC, with M14 melanoma, in the experiment with MDA-MB-435 and in the experiment with MOLT-4 leukemia was more than 10 µM in each case. Besides, the TGI with NCI/ADR-RES ovarian, in the experiment with SK-MEL-2 melanoma, in the experiment on SK-OV-3 ovarian and in the experiment with SN12C renal was more than 10 µM in each case.
`C=CCOC(=O)c1c(C)n([O-])c2cc(Cl)c(Cl)cc2[n+]1=O`: the TGI in the experiment on 786-0 renal was 60.1 µM; in the experiment with DU-145 prostate, more than 100 µM; in the experiment with HOP-92 NSCLC, 53.1 µM; with M14 melanoma, 38.8 µM; in the experiment on MDA-MB-435, 41.2 µM; in the experiment on MOLT-4 leukemia, 54.4 µM. The TGI came to 46.9 µM with NCI/ADR-RES ovarian, 39.4 µM with SK-MEL-2 melanoma, 59.8 µM in the experiment with SK-OV-3 ovarian and 54.7 µM with SN12C renal.
Take `c1ccc(C(c2cccc3c2ccc2ccccc23)C(c2ccccc2)c2cccc3c2ccc2ccccc23)cc1` (stereo not given): the TGI in the experiment on 786-0 renal, in the experiment with DU-145 prostate, in the experiment with HOP-92 NSCLC, with M14 melanoma, in the experiment on MDA-MB-435 and with MOLT-4 leukemia was more than 100 µM in each case. Further, the TGI in the experiment with NCI/ADR-RES ovarian, in the experiment on SK-MEL-2 melanoma, in the experiment with SK-OV-3 ovarian and with SN12C renal was more than 100 µM throughout.
For the compound `CC(C)NCC(O)c1ccc(O)c2ncccc12` (stereo not given), the TGI is more than 100 µM with 786-0 renal; more than 100 µM with DU-145 prostate; more than 100 µM in the experiment on HOP-92 NSCLC; more than 100 µM with M14 melanoma; more than 100 µM in the experiment on MDA-MB-435; 46.9 µM in the experiment on MOLT-4 leukemia. Besides, the TGI with NCI/ADR-RES ovarian is 92.5 µM; with SK-MEL-2 melanoma, more than 100 µM; in the experiment on SK-OV-3 ovarian it was more than 100 µM; in the experiment with SN12C renal, more than 100 µM.
For the compound `O=C(/C=C/c1ccc(OCc2ccccc2)cc1)NCc1ccc(C(=O)NCc2ccccc2)cc1`, the TGI in the experiment with 786-0 renal, in the experiment on DU-145 prostate, in the experiment on HOP-92 NSCLC, in the experiment on M14 melanoma, with MDA-MB-435 and in the experiment with MOLT-4 leukemia was more than 100 µM in each case. For the same compound, the TGI in the experiment with NCI/ADR-RES ovarian, in the experiment on SK-MEL-2 melanoma, in the experiment on SK-OV-3 ovarian and in the experiment on SN12C renal was more than 100 µM each time.
Turning to `NC(=S)Nc1ccc2c(c1)oc1ccccc12`, the TGI with 786-0 renal, in the experiment on DU-145 prostate, in the experiment with HOP-92 NSCLC, in the experiment with M14 melanoma, with MDA-MB-435 and with MOLT-4 leukemia was more than 100 µM throughout. Besides, the TGI in the experiment with NCI/ADR-RES ovarian, in the experiment with SK-MEL-2 melanoma, in the experiment with SK-OV-3 ovarian and in the experiment with SN12C renal was more than 100 µM each time.
Regarding `Nc1nc2c(c(-c3ccccc3Cl)n1)COC/C2=C\c1ccccc1Cl`, the TGI in the experiment with 786-0 renal came to 33.1 µM; with DU-145 prostate, 32.6 µM; in the experiment on HOP-92 NSCLC, 29 µM; in the experiment with M14 melanoma, 29.6 µM; with MDA-MB-435 it was 24.7 µM; with MOLT-4 leukemia it was 34.6 µM. Moreover, the TGI in the experiment on NCI/ADR-RES ovarian came out at 33 µM; in the experiment on SK-MEL-2 melanoma, 31 µM; in the experiment on SK-OV-3 ovarian, 30 µM; in the experiment with SN12C renal it was 31.3 µM.
Take `C/C(=N/NC(=S)Nc1cccc(Cl)c1)c1ccccn1`: the TGI in the experiment on 786-0 renal is 12.9 µM; in the experiment with DU-145 prostate, 4.98 µM; in the experiment with HOP-92 NSCLC it was 11.1 µM; in the experiment on M14 melanoma, 3.82 µM; in the experiment with MDA-MB-435 it was 15.4 µM; with MOLT-4 leukemia, 1.47 µM. For the same compound, the TGI in the experiment on NCI/ADR-RES ovarian came out at 4.58 µM; with SK-MEL-2 melanoma, 8.92 µM; in the experiment with SK-OV-3 ovarian, 10.4 µM; in the experiment on SN12C renal, 7.04 µM.
